Results reported in US11498903B2 (BRISTOL-MYERS SQUIBB COMPANY, priority 2017, dated 2022).
Like-named read-outs stand apart in the source and are kept apart here.

Target: T1, human APJ receptor (Homo sapiens, UniProt P35414)
T1 construct: expressed in transfected cells
T1 sequence (P35414 1-380): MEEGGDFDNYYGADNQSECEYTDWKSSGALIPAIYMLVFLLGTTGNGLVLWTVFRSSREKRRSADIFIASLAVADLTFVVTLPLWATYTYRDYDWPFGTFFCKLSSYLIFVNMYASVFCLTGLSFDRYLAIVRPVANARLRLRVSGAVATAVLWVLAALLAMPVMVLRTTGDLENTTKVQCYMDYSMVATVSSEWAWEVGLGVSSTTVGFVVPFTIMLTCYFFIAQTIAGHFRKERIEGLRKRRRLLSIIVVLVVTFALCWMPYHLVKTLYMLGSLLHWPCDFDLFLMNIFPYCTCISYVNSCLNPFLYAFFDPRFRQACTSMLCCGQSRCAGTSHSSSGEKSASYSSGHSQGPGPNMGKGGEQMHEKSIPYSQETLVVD
Experiment: Intracellular cAMP accumulation assay (APJ hcAMP, HTRF)
Type: cell-based
Settings: HEK293 cells stably expressing human APJ receptor
Method in brief: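 HEK293 cells stably expressing human APJ, 5,000/well, incubated 30 min at room temperature with compound plus […] and 2 μM forskolin. cAMP read by HTRF against a cAMP standard curve; EC50 from variable-slope sigmoidal fit, Ymax as % of (Pyr1)apelin-13 inhibition.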

[1] = Table 1, inhibition of forskolin-mediated cAMP production, read-out: APJ hcAMP EC50
[2] = Table 3, read-out: APJ cAMP Human EC50

| SMILES | EC50 [1] [µM] | EC50 (Table 2, read-out: APJ cAMP Human EC50) [µM] | EC50 [2] [µM] |
| --- | --- | --- | --- |
| COC[C@@H](NC(=O)c1ccc(-c2cc(Cl)ccc2-c2nc3cc(C(C)(C)C)ccc3[nH]2)c(C(=O)O)c1)c1ccccc1 [Example 80, 2′-(5-tert-butyl-1H-1,3-benzodiazol-2-yl)-5′-chloro-4-{[(1S)-2-methoxy-1-phenylethyl]carbamoyl}-[1,1′-biphenyl]-2-carboxylic acid] | < 0.01 | < 0.01 |  |
| CCCC(NC(=O)c1ccc(-c2c(Cl)cccc2-c2nc3cc(OC)c(F)cc3[nH]2)c(C(=O)O)c1)c1ccccc1 [Example 84, (S)-2′-chloro-6′-(6-fluoro-5-methoxy-1H-1,3-benzodiazol-2-yl)-4-{[(1R)-1-phenylbutyl]carbamoyl}-[1,1′-biphenyl]-2-carboxylic acid] |  |  | < 0.01 |
| CCCC(NC(=O)c1ccc(-c2c(Cl)cccc2-c2nc3cc(OC)c(OC)cc3[nH]2)c(C(=O)O)c1)c1ccccc1 [Example 93, (S)-2′-chloro-6′-(5,6-dimethoxy-1H-1,3-benzodiazol-2-yl)-4-{[(1R)-1-phenylbutyl]carbamoyl}-[1,1′-biphenyl]-2-carboxylic acid] | < 0.01 |  | < 0.01 |
| CCCC(NC(=O)c1ccc(-c2c(Cl)cccc2-c2ncc(-c3c(F)ccc(F)c3F)[nH]2)c(C(=O)O)c1)c1ccccc1 [Example 100, (S)-2′-chloro-4-{[(1R)-1-phenylbutyl]carbamoyl}-6′-[5-(2,3,6-trifluorophenyl)-1H-imidazol-2-yl]-[1,1′-biphenyl]-2-carboxylic acid] |  |  | < 0.01 |
| CCCC(NC(=O)c1ccc(-c2c(Cl)cccc2-c2ncc(-c3cccnc3)[nH]2)c(C(=O)O)c1)c1ccccc1 [Example 101, (S)-2′-chloro-4-{[(1R)-1-phenylbutyl]carbamoyl}-6′-[5-(pyridin-3-yl)-1H-imidazol-2-yl]-[1,1′-biphenyl]-2-carboxylic acid] |  |  | < 0.01 |
| COc1cc2[nH]c(-c3cccc(Cl)c3-c3ccc(C(=O)NC(C)C)cc3C(=O)O)nc2cc1F [Example 109, (S)-2′-chloro-6′-(5-fluoro-6-methoxy-1H-1,3-benzodiazol-2-yl)-4-[(propan-2-yl)carbamoyl]-[1,1′-biphenyl]-2-carboxylic acid] | 0.01 to 0.1 |  | 0.01 to 0.1 |
| COc1cc2[nH]c(-c3cccc(Cl)c3-c3ccc(C(=O)N4CCC(c5ccccc5)CC4)cc3C(=O)O)nc2cc1F [Example 110, (S)-2′-chloro-6′-(5-fluoro-6-methoxy-1H-1,3-benzodiazol-2-yl)-4-(4-phenylpiperidine-1-carbonyl)-[1,1′-biphenyl]-2-carboxylic acid] | < 0.01 |  | < 0.01 |
| COCCNC(=O)c1ccc(-c2c(Cl)cccc2-c2nc3cc(F)c(OC)cc3[nH]2)c(C(=O)O)c1 [Example 111, (S)-2′-chloro-6′-(5-fluoro-6-methoxy-1H-1,3-benzodiazol-2-yl)-4-[(2-methoxyethyl)carbamoyl]-[1,1′-biphenyl]-2-carboxylic acid] |  |  | < 0.01 |
| COc1cc2[nH]c(-c3cccc(Cl)c3-c3ccc(C(=O)NCCc4ccccc4)cc3C(=O)O)nc2cc1F [Example 112, (S)-2′-chloro-6′-(5-fluoro-6-methoxy-1H-1,3-benzodiazol-2-yl)-4-[(2-phenylethyl)carbamoyl]-[1,1′-biphenyl]-2-carboxylic acid] | < 0.01 |  | < 0.01 |
| COc1cc2[nH]c(-c3cccc(Cl)c3-c3ccc(C(=O)N4CCc5ccccc5C4)cc3C(=O)O)nc2cc1F [Example 113, (S)-2′-chloro-6′-(5-fluoro-6-methoxy-1H-1,3-benzodiazol-2-yl)-4-(1,2,3,4-tetrahydroisoquinoline-2-carbonyl)-[1,1′-biphenyl]-2-carboxylic acid] | < 0.01 |  | < 0.01 |
| COc1cc2[nH]c(-c3cccc(Cl)c3-c3ccc(C(=O)NCCC(C)C)cc3C(=O)O)nc2cc1F [Example 114, (S)-2′-chloro-6′-(5-fluoro-6-methoxy-1H-1,3-benzodiazol-2-yl)-4-[(3-methylbutyl)carbamoyl]-[1,1′-biphenyl]-2-carboxylic acid] | < 0.01 |  | < 0.01 |
| COc1ccc(CNC(=O)c2ccc(-c3c(Cl)cccc3-c3nc4cc(F)c(OC)cc4[nH]3)c(C(=O)O)c2)cc1 [Example 115, (S)-2′-chloro-6′-(5-fluoro-6-methoxy-1H-1,3-benzodiazol-2-yl)-4-{[(4-methoxyphenyl)methyl]carbamoyl}-[1,1′-biphenyl}-2-carboxylic acid] |  |  | 0.01 to 0.1 |
| COC(=O)CCNC(=O)c1ccc(-c2c(Cl)cccc2-c2nc3cc(F)c(OC)cc3[nH]2)c(C(=O)O)c1 [Example 116, (S)-2′-chloro-6′-(5-fluoro-6-methoxy-1H-1,3-benzodiazol-2-yl)-4-[(3-methoxy-3-oxopropyl)carbamoyl]-[1,1′-biphenyl]-2-carboxylic acid] |  |  | 0.01 to 0.1 |
| COc1cc2[nH]c(-c3cccc(Cl)c3-c3ccc(C(=O)NCC(c4ccccc4)c4ccccc4)cc3C(=O)O)nc2cc1F [Example 117, (S)-2′-chloro-4-[(2,2-diphenylethyl)carbamoyl]-6′-(5-fluoro-6-methoxy-1H-1,3-2-benzodiazol-2-yl)-[1,1′-biphenyl]-2-carboxylic acid] | 0.01 to 0.1 |  | 0.01 to 0.1 |
| COc1cc2[nH]c(-c3cccc(Cl)c3-c3ccc(C(=O)N4CCN(C)CC4)cc3C(=O)O)nc2cc1F [Example 118, (S)-2′-chloro-6′-(5-fluoro-6-methoxy-1H-1,3-benzodiazol-2-yl)-4-(4-methylpiperazine-1-carbonyl)-[1,1′-biphenyl]-2-carboxylic acid] | 0.01 to 0.1 |  | 0.01 to 0.1 |
| COc1cc2[nH]c(-c3cccc(Cl)c3-c3ccc(C(=O)NCc4ccccc4)cc3C(=O)O)nc2cc1F [Example 119, (S)-4-(benzylcarbamoyl)-2′-chloro-6′-(5-fluoro-6-methoxy-1H-1,3-benzodiazol-2-yl)-[1,1′-biphenyl]-2-carboxylic acid] | 0.01 to 0.1 |  | 0.01 to 0.1 |
| COc1cc2[nH]c(-c3cccc(Cl)c3-c3ccc(C(=O)NCc4ccc(Cl)cc4)cc3C(=O)O)nc2cc1F [Example 120, (S)-2′-chloro-4-{[(4-chlorophenyl)methyl]carbamoyl}-6′-(5-fluoro-6-methoxy-1H-1,3-benzodiazol-2-yl)-[1,1′-biphenyl]-2-carboxylic acid] | 0.01 to 0.1 |  | 0.01 to 0.1 |
| COc1cc2[nH]c(-c3cccc(Cl)c3-c3ccc(C(=O)NCC(C)C)cc3C(=O)O)nc2cc1F [Example 121, (S)-2′-chloro-6′-(5-fluoro-6-methoxy-1H-1,3-benzodiazol-2-yl)-4-[(2-methylpropyl)carbamoyl [1,1′-biphenyl]-2-carboxylic acid] | 0.01 to 0.1 |  | 0.01 to 0.1 |
| COc1cc2[nH]c(-c3cccc(Cl)c3-c3ccc(C(=O)NCCCN(C)C)cc3C(=O)O)nc2cc1F [Example 122, (S)-2′-chloro-4-{[3-(dimethylamino)propyl]carbamoyl}-6′-(5-fluoro-6-methoxy-1H-1,3-benzodiazol-2-yl)-[1,1′-biphenyl]-2-carboxylic acid] | 0.01 to 0.1 |  | 0.01 to 0.1 |
| COc1cc2[nH]c(-c3cccc(Cl)c3-c3ccc(C(=O)N4CCC(O)CC4)cc3C(=O)O)nc2cc1F [Example 123, (S)-2′-chloro-6′-(5-fluoro-6-methoxy-1H-1,3-benzodiazol-2-yl)-4-(4-hydroxypiperidine-1-carbonyl)-[1,1′-biphenyl]-2-carboxylic acid] | 0.01 to 0.1 |  | 0.01 to 0.1 |
| COc1cc2[nH]c(-c3cccc(Cl)c3-c3ccc(C(=O)N4CCCC4)cc3C(=O)O)nc2cc1F [Example 124, (S)-2′-chloro-6′-(5-fluoro-6-methoxy-2-yl)-4-(pyrrolidine-1-carbonyl)-[1,1′-biphenyl]-2-carboxylic acid] | 0.01 to 0.1 |  | 0.01 to 0.1 |
| COc1ccc(NC(=O)c2ccc(-c3c(Cl)cccc3-c3nc4cc(F)c(OC)cc4[nH]3)c(C(=O)O)c2)cc1 [Example 125, (S)-2′-chloro-6′-(5-fluoro-6-methoxy-1H-1,3-benzodiazol-2-yl)-4-[(4-methoxyphenyl)carbamoyl]-[1,1′-biphenyl]-2-carboxylic acid] | 0.01 to 0.1 |  | 0.01 to 0.1 |
| COc1cc2[nH]c(-c3cccc(Cl)c3-c3ccc(C(=O)N4CCC(Cc5ccccc5)CC4)cc3C(=O)O)nc2cc1F [Example 126, (S)-4-(4-benzylpiperidine-1-carbonyl)-2′-chloro-6′-(5-fluoro-6-methoxy-1H-1,3-benzodiazol-2-yl)-[1,1′-biphenyl]-2-carboxylic acid] |  |  | 0.101 to 0.5 |
| CCC[C@@H](NC(=O)c1ccc(-c2c(Cl)cccc2-c2nc3cc(OC)c(F)cc3[nH]2)c(C(=O)NOC)c1)c1ccccc1 [Example 127, 2′-chloro-6′-(6-fluoro-5-methoxy-1H-1,3-benzodiazol-2-yl)-N2-methoxy-N4-[(1R)-1-phenylbutyl]-[1,1′-biphenyl]-2,4-dicarboxamide] |  |  | < 0.01 |
| CCC[C@@H](NC(=O)c1ccc(-c2c(Cl)cccc2-c2nc3ccccc3[nH]2)c(-c2n[nH]c(=O)o2)c1)c1ccccc1 [Example 129, 2′-(1H-1,3-benzodiazol-2-yl)-6′-chloro-2-(5-oxo-4,5-dihydro-1,3,4-oxadiazol-2-yl)-N-[(1R)-1-phenylbutyl]-[1,1′-biphenyl]-4-carboxamide] |  |  | 0.01 to 0.1 |
